The text below walks through data of US9187492B2, “Pyripyropene derivative having ACAT2 inhibiting activity and stable to metabolizing enzymes” (School Juridical Person Kitasato Institute, priority 2010, dated 2015).

Structures are written as SMILES. Read-outs that look alike come from different tables or passages of the source. Where only a bound is given, the exact number is not on record here.

For series [1] the following is noted: female, Sprague-Dawley (SD), rat, microsomes, 6 μg/mL, pH 7.4.
The next series is described as follows: in vitro. As to conditions: female, Sprague-Dawley (SD), rat, microsomes, pH 7.4, Half-life.
The target in another series is T1, ACAT2 (Mus musculus, UniProt O88908).
T1 construct: The resulting sediment was collected as a microsome fraction; from tissue; host or cells: mouse liver (hepatic microsome membrane fraction)
T1 sequence (O88908 1-525): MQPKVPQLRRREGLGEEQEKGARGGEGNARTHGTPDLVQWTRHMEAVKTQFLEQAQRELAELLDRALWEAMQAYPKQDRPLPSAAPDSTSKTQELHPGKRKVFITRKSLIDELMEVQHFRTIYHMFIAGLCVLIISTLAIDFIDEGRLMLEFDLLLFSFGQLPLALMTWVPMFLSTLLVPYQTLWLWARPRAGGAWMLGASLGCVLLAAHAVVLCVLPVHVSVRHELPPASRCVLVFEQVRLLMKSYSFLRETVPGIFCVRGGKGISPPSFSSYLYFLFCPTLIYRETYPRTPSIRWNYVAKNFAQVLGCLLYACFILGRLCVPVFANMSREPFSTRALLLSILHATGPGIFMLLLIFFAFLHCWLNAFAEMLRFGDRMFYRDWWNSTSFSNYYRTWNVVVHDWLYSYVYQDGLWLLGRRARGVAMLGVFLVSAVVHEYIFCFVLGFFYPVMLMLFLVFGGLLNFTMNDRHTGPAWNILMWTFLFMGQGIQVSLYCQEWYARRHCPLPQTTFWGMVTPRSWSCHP
The series is described as follows: Measurement of ACAT2-inhibiting activity (murine hepatic microsome, [14C]cholesteryl oleate formation). The class given is biochemical. The note with it: for IC50: murine hepatic microsome membrane fraction, 5 min at 37° C., read-out: Inhibitory activity (concentration required for 50% inhibition of ACAT 2 = IC50); for Specific activity ((IC50 of the test compound)/(IC50 of PRD 043)): relative to PRD 043, class symbols. As for the experimental part:
The enzyme source which was used was a membrane fraction derived from murine hepatic microsome. Mouse livers were homogenized in buffer solution A (50 mM Tris HCl solution (pH 7.8), 1 mM ethylene diamine tetraacetate, and 1 mM phenylmethanesulfonyl fluoride) using a Potter-type homogenizer (Tokyo-Riko). The homogenate was centrifuged at 12000×g, and the supernatant was subjected to ultracentrifugation at 100000×g. The resulting sediment was collected as a microsome fraction, and this fraction was adjusted so as to have a protein concentration of 5 mg/mL using buffer solution A.
As a control, 10 μL of methanol were used in place of the pyripyropene derivative.
The chloroform layer was evaporated to dryness and was used to spot a thin layer chromatography plate (silica gel plate, Merck, 0.5 mm thickness). Elution for separation was carried out using hexane/diethyl ether/acetic acid (70:30:1, v/v) as an eluant.
wherein the background is the radioactivity of a thin layer chromatography plate which was not spotted.

A short description of series [2]: Stability against metabolizing enzymes in the liver (hepatic microsome). The note with it: time until remaining amount reached 50%, 37° C.; for half-life at 6 μg/mL: female, Sprague-Dawley (SD), rat, liver microsomes, pH 7.4, Half-life; for Half-life: female SD rat hepatic microsome, 6 μg/mL, pH 7.4.

`CC(=O)OC[C@@]1(C)[C@@H]2C[C@H](OC(C)=O)[C@@]3(C)Oc4cc(-c5cccnc5)oc(=O)c4[C@H](O)[C@@H]3[C@@]2(C)CC[C@@H]1OC(C)=O` [PPA, pyripyropene A]: the Half-life in series [1] was less than 1 h. The molecule further had a half-life at 6 μg/mL in “in vitro” of 1 h.

Take `CC12CO[C@@H](c3cccc4ccccc34)O[C@H]1CC[C@@]1(C)C2C[C@H](OC(=O)c2ccc(C#N)cc2)[C@@]2(C)Oc3cc(-c4cccnc4)oc(=O)c3[C@H](O)C12` (stereo partly drawn) [PRD180, 1,11-O-o-naphthylidene-7-O-p-cyanobenzoyl-1,7,11-trideacetylpyripyropene A]: at ACAT2, the IC50 was in the range of 1 to 10 nM and the “Specific activity ((IC50 of the test compound)/(IC50 of PRD 043))” value (shortened to “Specific activity”) is “+++ (10<specific activity≦20)”. Moreover, in series [2], the half-life at 6 μg/mL was no less than 9 h and the Half-life is listed as greater than 9 h.

`Cc1cccc(C)c1[C@@H]1OCC2(C)C3C[C@H](OC(=O)c4ccc(C#N)cc4)[C@@]4(C)Oc5cc(-c6cccnc6)oc(=O)c5[C@H](O)C4[C@@]3(C)CC[C@@H]2O1` (stereo partly drawn) [PRD181, 1,11-O-o,o-dimethylbenzylidene-7-O-p-cyanobenzoyl-1,7,11-trideacetylpyripyropene A]: at ACAT2, the IC50 was 0.5 to 1 nM and the “Specific activity” value is recorded as “+++ (10<specific activity≦20)”. In series [2], the half-life at 6 μg/mL is no less than 9 h and the Half-life is on record as greater than 9 h.

With `CC(=O)O[C@H]1CC2C3(C)CO[C@@H](c4ccccc4)O[C@H]3CC[C@]2(C)C2[C@@H](O)c3c(cc(-c4cccnc4)oc3=O)O[C@@]21C` (stereo partly drawn) [PRD186, 1,11-O-benzylidene-1,11-dideacetylpyripyropene A], at ACAT2, the IC50 lay in the range of 1 to 10 nM and the “Specific activity” value is given as “+++ (10<specific activity≦20)”. In series [2], this molecule returned a half-life at 6 μg/mL of no less than 9 h and a Half-life greater than 9 h.

For the molecule `CC(=O)O[C@H]1CC2C(C)(COC(=O)C(C)C)[C@@H](OC(=O)C(C)C)CC[C@]2(C)C2[C@@H](O)c3c(cc(-c4cccnc4)oc3=O)O[C@@]21C` (stereo partly drawn) [PRD187, 1,11-O-diisobutyryl-1,11-dideacetylpyripyropene A], on ACAT2, the IC50 was in the range of 0.5 to 1 nM and the “Specific activity” value is on record as “+++ (10<specific activity≦20)”. Further, in series [2], the half-life at 6 μg/mL was no less than 9 h and the Half-life is listed as greater than 9 h.

What is called half-life is the time needed for the level to fall by half in the phase considered. Higher therefore signals slow decline.
